The text below walks through data of US20230257372A1 (CHONG KUN DANG PHARMACEUTICAL CORP., priority 2020, published 2023).

In assay [1] the target is T1, human recombinant HDAC1 (Homo sapiens, UniProt Q13547).
T1 construct: purchased Enzo Life Science, Inc. BML-SE456
Kind of assay: HDAC1 enzyme activity inhibition (HDAC Fluorimetric Drug Discovery Kit). It is filed as biochemical. The conditions noted are these: read-out: HDAC1. Summed up:
(§1)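 Each isoform is run in the same format: compound dilutions (5-fold steps), 10 μM substrate, […] enzyme, one hour at 30° C, then 30 minutes with developer before fluorescence readout.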

Assay [2] has as its target T2, human recombinant HDAC6 (Homo sapiens, UniProt Q9UBN7).
T2 construct: purchased Calbiochem Inc. 382180
T2 sequence (Q9UBN7 1-1215): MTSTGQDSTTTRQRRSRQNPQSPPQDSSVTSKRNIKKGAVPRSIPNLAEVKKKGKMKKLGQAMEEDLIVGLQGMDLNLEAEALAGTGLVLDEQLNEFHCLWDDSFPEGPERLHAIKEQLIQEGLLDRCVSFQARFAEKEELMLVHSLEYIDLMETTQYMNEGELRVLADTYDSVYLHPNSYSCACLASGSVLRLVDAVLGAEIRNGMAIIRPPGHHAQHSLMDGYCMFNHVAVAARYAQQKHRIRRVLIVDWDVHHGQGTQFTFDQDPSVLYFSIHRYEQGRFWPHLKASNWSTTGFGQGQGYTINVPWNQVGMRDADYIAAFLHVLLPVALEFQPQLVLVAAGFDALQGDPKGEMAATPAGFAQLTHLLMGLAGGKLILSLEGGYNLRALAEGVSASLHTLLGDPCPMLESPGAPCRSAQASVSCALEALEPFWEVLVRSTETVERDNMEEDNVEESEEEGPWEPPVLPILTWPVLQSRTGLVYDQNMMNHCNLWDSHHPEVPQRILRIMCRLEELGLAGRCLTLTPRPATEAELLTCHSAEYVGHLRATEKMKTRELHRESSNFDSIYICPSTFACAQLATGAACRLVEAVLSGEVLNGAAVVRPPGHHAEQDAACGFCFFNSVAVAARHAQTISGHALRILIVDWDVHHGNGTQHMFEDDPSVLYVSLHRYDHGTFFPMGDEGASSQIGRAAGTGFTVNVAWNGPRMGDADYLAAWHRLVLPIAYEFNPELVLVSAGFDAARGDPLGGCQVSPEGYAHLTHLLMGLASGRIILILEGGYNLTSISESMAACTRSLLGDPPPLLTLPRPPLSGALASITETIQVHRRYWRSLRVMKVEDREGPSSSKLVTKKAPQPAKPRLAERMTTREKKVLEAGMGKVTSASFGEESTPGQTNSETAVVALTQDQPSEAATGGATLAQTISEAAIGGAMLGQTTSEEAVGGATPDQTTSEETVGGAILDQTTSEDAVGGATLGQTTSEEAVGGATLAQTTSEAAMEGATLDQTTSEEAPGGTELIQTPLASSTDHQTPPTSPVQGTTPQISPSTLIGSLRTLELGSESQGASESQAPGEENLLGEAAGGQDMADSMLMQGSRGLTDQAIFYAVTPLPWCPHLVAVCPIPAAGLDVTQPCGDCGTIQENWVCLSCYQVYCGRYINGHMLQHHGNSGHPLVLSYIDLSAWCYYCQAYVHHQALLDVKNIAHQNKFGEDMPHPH
Put plainly: HDAC6 enzyme activity inhibition (HDAC Fluorimetric Drug Discovery Kit). It is filed as biochemical. Put shortly: as §1

[3] abbreviates: human recombinant HDAC1, Fluor de Lys substrate, 30° C. 60 minutes.
Where [4] appears, read: human recombinant HDAC6, same protocol as HDAC1.
Setting [5] is: human recombinant HDAC1, IC50 calculated with GraphPad Prism.
Setting [6] is: human recombinant HDAC6, IC50 calculated with GraphPad Prism.

Structures are written as SMILES. Read-outs that look alike come from different tables or passages of the source.

T1 sequence (Q13547 whole entry): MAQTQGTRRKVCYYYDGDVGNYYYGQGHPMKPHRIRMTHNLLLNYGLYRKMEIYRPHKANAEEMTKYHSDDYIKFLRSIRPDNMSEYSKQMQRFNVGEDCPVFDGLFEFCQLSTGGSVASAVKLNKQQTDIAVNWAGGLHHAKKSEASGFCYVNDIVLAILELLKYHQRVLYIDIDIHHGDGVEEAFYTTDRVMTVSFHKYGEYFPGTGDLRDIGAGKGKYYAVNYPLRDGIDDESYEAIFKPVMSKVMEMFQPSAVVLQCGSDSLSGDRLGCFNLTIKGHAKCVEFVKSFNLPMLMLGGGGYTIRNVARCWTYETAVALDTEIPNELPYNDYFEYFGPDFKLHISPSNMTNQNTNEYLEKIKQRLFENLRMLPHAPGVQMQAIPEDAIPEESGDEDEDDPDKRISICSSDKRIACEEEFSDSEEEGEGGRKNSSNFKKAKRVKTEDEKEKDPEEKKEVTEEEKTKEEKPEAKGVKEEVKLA

As to `CN1CCN(c2cccc(-c3cn(Cc4ccc(-c5nnc(C(F)F)o5)cc4F)nn3)c2F)CC1` [Compound 4576, 2-(difluoromethyl)-5-(3-fluoro-4-((4-(2-fluoro-3-(4-methylpiperazin-1-yl)phenyl)-1H-1,2,3-triazol-1-yl)methyl)phenyl)-1,3,4-oxadiazol], the values for the IC50 in assay [1] (setting [3]) and in assay [2] (setting [4]) were more than 50 µM and 17.5 nM, respectively. Moreover, in assay [2] (HDAC6 over HDAC1), the “HDAC6 selectivity (fold)” value is listed as 2857 fold.

For `Fc1cc(-c2nnc(C(F)F)o2)ccc1Cn1cc(-c2ccc(CN3CCCC3)c(Cl)c2)nn1` [Compound 18713, 2-(4-((4-(3-chloro-4-(pyrrolidin-1-ylmethyl)phenyl)-1H-1,2,3-triazol-1-yl)methyl)-3-fluorophenyl)-5-(difluoromethyl)-1,3,4-oxadiazole], the results for the IC50 in assay [1] (setting [3]) and in assay [2] (setting [4]) were more than 50 µM and 72.9 nM, respectively. For the same molecule, the “HDAC6 selectivity (fold)” value in assay [2] (HDAC6 over HDAC1) came out at 685 fold.

For the molecule `CC(C)(C)OC(=O)N1CCCC(c2cn(Cc3ccc(-c4nnc(C(F)F)o4)cn3)nn2)C1` (stereo not drawn) [Compound 3961, Tert-butyl 3-(1-((5-(5-(difluoromethyl)-1,3,4-oxadiazol-2-yl)pyridin-2-yl)methyl)-1H-1,2,3-triazol-4-yl)piperidin-1-carboxylate], the IC50 in assay [1] (setting [5]) was more than 50 µM; in assay [2] (setting [6]) it was 129 nM. Moreover, the “HDAC6 selectivity (fold)” value in assay [2] (HDAC1 IC50 / HDAC6 IC50) amounted to 386 fold.

As for `FC(F)c1nnc(-c2ccc(Cn3cc(-c4cccc(N5CCOCC5)c4)nn3)cc2)o1` [Compound 4338, 4-(3-(1-(4-(5-(difluoromethyl)-1,3,4-oxadiazol-2-yl)benzyl)-1H-1,2,3-triazol-4-yl)phenyl)morpholine], the IC50 in assay [1] (setting [5]) was more than 50 µM; in assay [2] (setting [6]), 65.3 nM. Moreover, the “HDAC6 selectivity (fold)” value in assay [2] (HDAC1 IC50 / HDAC6 IC50) is listed as 765 fold.

With `FC(F)c1nnc(-c2ccc(Cn3cc(-c4ccc(-n5cncn5)cc4)nn3)nc2)o1` [Compound 4285, 2-(6-((4-(4-(1H-1,2,4-triazol-1-yl)phenyl)-1H-1,2,3-triazol-1-yl)methyl)pyridin-3-yl)-5-(difluoromethyl)-1,3,4-oxadiazole], the IC50 is more than 50 µM in assay [1] (setting [5]) and 31.7 nM in assay [2] (setting [6]). In addition, the “HDAC6 selectivity (fold)” value in assay [2] (HDAC1 IC50 / HDAC6 IC50) is on record as 1577 fold.

As for `Fc1cc(-c2nnc(C(F)F)o2)ccc1Cn1cc(-c2ccc(F)c(N3C[C@@H]4C[C@H]3CN4)c2)nn1` [Compound 4399, 2-(4-((4-(3-((1S,4S)-2,5-diazabicyclo[2.2.1]heptan-2-yl)-4-fluorophenyl)-1H-1,2,3-triazol-1-yl)methyl)-3-fluorophenyl)-5-(difluoromethyl)-1,3,4-oxadiazole], the figures for the IC50 in assay [1] (setting [5]) and in assay [2] (setting [6]) were more than 50 µM and 108 nM, respectively. Also, in assay [2] (HDAC1 IC50 / HDAC6 IC50), the “HDAC6 selectivity (fold)” value is recorded as 460 fold.

Turning to `Fc1cc(-c2nnc(C(F)F)o2)ccc1Cn1cc(-c2ccc(CNC3CCC(F)(F)CC3)cc2)nn1` [Compound 4477, N-(4-(1-(4-(5-(difluoromethyl)-1,3,4-oxadiazol-2-yl)-2-fluorobenzyl)-1H-1,2,3-triazol-4-yl)benzyl)-4,4-difluorocyclohexan-1-amine], the IC50 in assay [1] (setting [5]) was more than 50 µM; in assay [2] (setting [6]) it was 24.9 nM. The “HDAC6 selectivity (fold)” value in assay [2] (HDAC1 IC50 / HDAC6 IC50) amounted to 2008 fold.

With `CC(=O)N1CCC(Nc2cccc(-c3cn(Cc4ccc(-c5nnc(C(F)F)o5)cc4F)nn3)c2F)CC1` [Compound 4433, 1-(4-((3-(1-(4-(5-(difluoromethyl)-1,3,4-oxadiazol-2-yl)-2-fluorobenzyl)-1H-1,2,3-triazol-4-yl)-2-fluorophenyl)amino)piperidin-1-yl)ethan-1-one], the values for the IC50 in assay [1] (setting [5]) and in assay [2] (setting [6]) were more than 50 µM and 33.1 nM, respectively. In assay [2] (HDAC1 IC50 / HDAC6 IC50), the “HDAC6 selectivity (fold)” value amounted to 1510 fold.

For the molecule `CN1CC(c2cccc(-c3cn(Cc4ccc(-c5nnc(C(F)F)o5)cc4)nn3)c2)C1` [Compound 4528, 2-(difluoromethyl)-5-(4-((4-(3-(1-methylazetidin-3-yl)phenyl)-1H-1,2,3-triazol-1-yl)methyl)phenyl)-1,3,4-oxadiazole], the IC50 in assay [1] (setting [3]) is more than 50 µM; in assay [2] (setting [4]), 135 nM. Besides, the “HDAC6 selectivity (fold)” value in assay [2] (HDAC6 over HDAC1) was 371 fold.

On to `CC(C)N1CCN(c2cc(-c3cn(Cc4ccc(-c5nnc(C(F)F)o5)cn4)nn3)ccn2)CC1` [Compound 4592, 2-(difluoromethyl)-5-(6-((4-(2-(4-isopropylpiperazin-1-yl)pyridin-4-yl)-1H-1,2,3-triazol-1-yl)methyl)pyridin-3-yl)-1,3,4-oxadiazole], for which the results for the IC50 in assay [1] (setting [3]) and in assay [2] (setting [4]) were more than 50 µM and 15.4 nM, respectively. Further, the “HDAC6 selectivity (fold)” value in assay [2] (HDAC6 over HDAC1) came out at 3246 fold.

Consider `CCOC(=O)N1CCC(c2cn(Cc3ccc(-c4nnc(C(F)F)o4)cn3)nn2)CC1` [Compound 3892, Ethyl4-(1-((5-(5-(difluoromethyl)-1,3,4-oxadiazol-2-yl)pyridin-2-yl)methyl)-1H-1,2,3-triazol-4-yl)piperidin-1-carboxylate], for which the IC50 is more than 50 µM in assay [1] (setting [5]) and 140 nM in assay [2] (setting [6]). Besides, in assay [2] (HDAC1 IC50 / HDAC6 IC50), the “HDAC6 selectivity (fold)” value is given as 357 fold.

Take `Fc1cc(-c2nnc(C(F)F)o2)ccc1Cn1cc(-c2ccc(C3CN(C4CCC4)C3)cc2)nn1` [Compound 17699, 2-(4-((4-(4-(1-cyclobutylazetidin-3-yl)phenyl)-1H-1,2,3-triazol-1-yl)methyl)-3-fluorophenyl)-5-(difluoromethyl)-1,3,4-oxadiazole]: the IC50 in assay [1] (setting [3]) was more than 50 µM; in assay [2] (setting [4]), 47.9 nM. Also, the “HDAC6 selectivity (fold)” value in assay [2] (HDAC6 over HDAC1) amounted to 1043 fold.

With `FC(F)c1nnc(-c2ccc(Cn3cc(-c4ccc(CNC5COC5)cc4)nn3)cc2)o1` [Compound 4556, N-(4-(1-(4-(5-(difluoromethyl)-1,3,4-oxadiazol-2-yl)benzyl)-1H-1,2,3-triazol-4-yl)benzyl)oxetan-3-amine], the IC50 is more than 50 µM in assay [1] (setting [3]) and 73.3 nM in assay [2] (setting [4]). In addition, the “HDAC6 selectivity (fold)” value in assay [2] (HDAC6 over HDAC1) was 682 fold.

`Fc1ccc(-c2cn(Cc3ccc(-c4nnc(C(F)F)o4)cc3)nn2)cc1N1CCNCC1` [Compound 4396, 2-(difluoromethyl)-5-(4-((4-(4-fluoro-3-(piperazin-1-yl)phenyl)-1H-1,2,3-triazol-1-yl)methyl)phenyl)-1,3,4-oxadiazole]: the IC50 in assay [1] (setting [5]) was more than 50 µM; in assay [2] (setting [6]), 80.7 nM. Besides, the “HDAC6 selectivity (fold)” value in assay [2] (HDAC1 IC50 / HDAC6 IC50) is 619 fold.

`CN(C)[C@@H]1CCN(Cc2ccc(-c3cn(Cc4ccc(-c5nnc(C(F)F)o5)cc4F)nn3)cc2)C1` [Compound 4605, (R)-1-(4-(1-(4-(5-(difluoromethyl)-1,3,4-oxadiazol-2-yl)-2-fluorobenzyl)-1H-1,2,3-triazol-4-yl)benzyl)-N,N-dimethylpyrrolidin-3-amine]: the IC50 in assay [1] (setting [3]) was more than 50 µM; in assay [2] (setting [4]) it was 21 nM. Moreover, in assay [2] (HDAC6 over HDAC1), the “HDAC6 selectivity (fold)” value came to 2380 fold.

As for `FC(F)c1nnc(-c2ccc(Cn3cc(-c4ccc5[nH]cc(CN6CCOCC6)c5c4)nn3)cc2)o1` [Compound 4186, 4-((5-(1-(4-(5-(difluoromethyl)-1,3,4-oxadiazol-2-yl)benzyl)-1H-1,2,3-triazol-4-yl)-1H-indol-3-yl)methyl)morpholine], the IC50 is more than 50 µM in assay [1] (setting [5]) and 11.2 nM in assay [2] (setting [6]). Further, the “HDAC6 selectivity (fold)” value in assay [2] (HDAC1 IC50 / HDAC6 IC50) worked out at 4464 fold.

Take `Fc1cc(-c2nnc(C(F)F)o2)ccc1Cn1cc(-c2ccc(CN3CC[C@H](F)C3)s2)nn1` [Compound 17916]: the IC50 in assay [1] (setting [3]) is more than 50 µM; in assay [2] (setting [4]), 89.8 nM. In addition, the “HDAC6 selectivity (fold)” value in assay [2] (HDAC6 over HDAC1) was found to be 556 fold.

`CN1Cc2ccc(-c3cn(Cc4ccc(-c5nnc(C(F)F)o5)cc4F)nn3)cc2C1` [Compound 4515, 2-(difluoromethyl)-5-(3-fluoro-4-((4-(2-methylisoindolin-5-yl)-1H-1,2,3-triazol-1-yl)methyl)phenyl)-1,3,4-oxadiazole]: the figures for the IC50 in assay [1] (setting [3]) and in assay [2] (setting [4]) were more than 50 µM and 55.5 nM, respectively. The “HDAC6 selectivity (fold)” value in assay [2] (HDAC6 over HDAC1) came to 900 fold.
